In US8143411B2, “Substituted 6-phenylnicotinic acids and their use” (Bayer Animal Health GmbH, priority 2007, dated 2012):
pEC50: −log10 of the molar value. Counter-ions that a name gives are not always drawn.

These compounds were tested against T1, human PPARα receptor (Homo sapiens, UniProt Q07869) (assay: Cellular transactivation assay (GAL4-PPARα chimera, luciferase reporter)). Conditions: CHO cells stably expressing GAL4-PPARα chimera (human PPARα ligand binding domain) and luciferase reporter; 6 h stimulation.
T1 construct: expressed in transfected cells
T1 sequence (Q07869 167-468): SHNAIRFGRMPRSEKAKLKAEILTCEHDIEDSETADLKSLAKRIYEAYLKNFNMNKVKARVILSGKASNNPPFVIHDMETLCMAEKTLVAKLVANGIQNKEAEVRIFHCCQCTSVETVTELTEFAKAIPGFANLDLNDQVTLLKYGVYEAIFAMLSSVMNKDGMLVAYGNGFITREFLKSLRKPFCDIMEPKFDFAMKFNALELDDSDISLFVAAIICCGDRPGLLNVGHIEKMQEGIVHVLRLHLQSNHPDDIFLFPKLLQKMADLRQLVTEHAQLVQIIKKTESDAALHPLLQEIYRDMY
Assay type: cell-based
Source text: A cellular assay is used to identify activators of the peroxisome proliferator-activated receptor alpha (PPAR-alpha).
Since mammalian cells contain different endogenous nuclear receptors which may complicate an unambiguous interpretation of the results, an established chimera system is used in which the ligand binding domain of the human PPARα receptor is fused to the DNA binding domain of the yeast transcription factor GAL4. The resulting GAL4-PPARα chimera is co-transfected and stably expressed in CHO cells having a reporter construct.
The GAL4-PPARα expression construct contains the ligand binding domain of PPARα (amino acids 167-468) which is PCR-amplified and cloned into the vector pcDNA3.1. This vector already contains the GAL4 DNA binding domain (amino acids 1-147) of the vector pFC2-dbd (Stratagene). The reporter construct, which contains five copies of the GAL4 binding site upstream of a thymidine kinase promoter, expresses firefly luciferase (Photinus pyralis) following activation and binding of GAL4-PPARα.
The day before the test, CHO (Chinese hamster ovary) cells which stably express the GAL4-PPARα chimera described above and the luciferase reporter gene construct are plated in medium (Optimem, GIBCO), 2% activated carbon-purified fetal calf serum (Hyclone), 1.35 mM sodium pyruvate (GIBCO), 0.2% sodium bicarbonate (GIBCO) with 1×10^3 cells in 96-well microtiter plates and kept in a cell incubator (96% atmospheric humidity, 5% v/v CO2, 37° C.). On the day of the test, the substances to be tested are taken up in the medium mentioned above but without added calf serum) and added to the cells. After a stimulation period of 6 h, the luciferase activity is measured using a video camera. The relative light units measured give, as a function of the substance concentration, a sigmoidal stimulation curve. The EC50 values are calculated using the computer programme GraphPad PRISM (Version 3.02).

Row | SMILES | pEC50
1 | Cc1ccc(-c2cc(C(F)(F)F)c(C(=O)O)c(CC(C)C)n2)cc1F [Example 2, 6-(3-Fluoro-4-methylphenyl)-2-isobutyl-4-(trifluoromethyl)nicotinic acid sodium salt] | 7.96
2 | Cc1ccc(-c2cc(C(F)(F)F)c(C(=O)O)c(NC(C)C)n2)cc1F [Example 7, 6-(3-Fluoro-4-methylphenyl)-2-(isopropylamino)-4-(trifluoromethyl)nicotinic acid] | 7.08
3 | O=C(O)c1c(C(F)(F)F)cc(-c2ccc(Cl)cc2)nc1NCC1CC1 [Example 22, 6-(4-Chlorophenyl)-2-[(cyclopropylmethyl)amino]-4-(trifluoromethyl)nicotinic acid] | 7.00
4 | CCOc1nc(-c2ccc(C)c(F)c2)cc(C(F)(F)F)c1C(=O)O [Example 34, 2-Ethoxy-6-(3-fluoro-4-methylphenyl)-4-(trifluoromethyl)nicotinic acid] | 7.02
5 | Cc1ccc(-c2cc(C(F)(F)F)c(C(=O)O)c(OC(C)C3CCCCC3)n2)cc1F (centres unmarked) [Example 42, 2-(1-Cyclohexylethoxy)-6-(3-fluoro-4-methylphenyl)-4-(trifluoromethyl)nicotinic acid] | 6.92
6 | COCCN(C)c1nc(-c2ccc(C)c(F)c2)cc(C(F)(F)F)c1C(=O)O [Example 47, 6-(3-Fluoro-4-methylphenyl)-2-[(2-methoxyethyl)(methyl)amino]-4-(trifluoromethyl)nicotinic acid hydrochloride] | 6.74
7 | CC(C)CCOc1nc(-c2cc(F)cc(F)c2)cc(C(F)(F)F)c1C(=O)O [Example 49, 6-(3,5-Difluorophenyl)-2-(3-methylbutoxy)-4-(trifluoromethyl)nicotinic acid] | 7.38
8 | CCc1nc(-c2ccc(Cl)cc2)cc(CC(C)C)c1C(=O)O [Example 51, 6-(4-Chlorophenyl)-2-ethyl-4-isobutyl-nicotinic acid] | 7.62
9 | CC(C)(C)CCOc1nc(-c2ccc(Br)cc2)cc(C(F)(F)F)c1C(=O)O [Example 67, 6-(4-Bromophenyl)-2-(3,3-dimethylbutoxy)-4-(trifluoromethyl)nicotinic acid] | 6.74
10 | CCOc1cc(-c2ccc(Cl)cc2)nc(C(C)C)c1C(=O)O [Example 71, 6-(4-Chlorophenyl)-4-ethoxy-2-(1-methylethyl)nicotinic acid sodium salt] | 7.07
11 | CC(C)Cc1nc(-c2ccc(Cl)cc2)cc(C(F)(F)F)c1C(=O)O [Example 77, 6-(4-Chlorophenyl)-2-isobutyl-4-(trifluoromethyl)nicotinic acid sodium salt] | 7.89
